One assay has as its system R. pickettii biofilm. In words: biofilm assay on silicone breast implants. It counts as cell-based, Ralstonia Pickettii. As to the method: Biofilm assays were performed after 2 to 3 mL of 10^5 CFU/mL bacterial inoculum was added to each tube containing the respective implants and placed into a shaking incubator (250-300 rpm) at 30° C. for 24 hours, allowing for formation of biofilm on implants. After 24 hours' incubation, the implants having the biofilm were rinsed twice with Butterfields phosphate buffer. After the rinses, the implants were aseptically transferred to tubes containing 5 mL test articles for contact time points; 5 min and 2 hours. Postincubation, the implants were rinsed twice with Butterfields phosphate buffer, placed in 5 mL of sterile neutralizing buffer and sonicated at 50 to 60 Hz for 5 minutes. Tenfold serial dilutions were performed for each sample tube using neutralizing buffer as the diluent. A total of 100 μL of appropriate dilutions of each sample were plated on a nutrient agar plate in duplicates and incubated overnight. The colonies were counted postincubation. Data were evaluated by comparing the difference in CFU/mL for the implants and blank control at 5 min and 2 hours.

For assay [1], the system named is microbial cells and spore. Particulars: cited from earlier work.

Data on 2 molecules can be found in US20190099259A1, “Method for Treatment and Prevention of Biofilm Formation During Breast Augmentation Procedures” (Integrated Healing Technologies, LLC, priority 2017, published 2019).

Regarding `OCl` [Hypochlorous acid, hypochlorous acid], in the assay on R. pickettii biofilm (general statement), the “effect in the biofilm model” value is recorded as “effective at reducing Ralstonia Pickettii bacterial numbers”. Also, the “potency as a germicide versus equivalent molar ratio of hypochlorite anion” value in assay [1] is given as 80-100 times.
In the case of `[H]/N=C(\N/C(=N/[H])NCCCCCCNC(=N)NC(=N)Nc1ccc(Cl)cc1)Nc1ccc(Cl)cc1` [Chlorhexidine gluconate], the antibiofilm activity result in the assay on R. pickettii biofilm (Biocell implant, 5 minutes) was “did not have antibiofilm activity”; in the assay with R. pickettii biofilm (Biocell implant, 2 hours), “did not have antibiofilm activity”; in the assay with R. pickettii biofilm (Siltex implant, 5 minutes), “did not have antibiofilm activity”; in the assay with R. pickettii biofilm (Siltex implant, 2 hours), “did not have antibiofilm activity”; with R. pickettii biofilm (smooth implant, 5 minutes) it was “limited reduction”; in the assay on R. pickettii biofilm (smooth implant, 2 hours), “complete eradication”. Also, the “penetration of established biofilm” value with R. pickettii biofilm (after two hours) is “unable to penetrate established biofilm”.
